Source: patent US8053574B2, “Organic compounds” (Novartis AG, priority 2007, dated 2011)

These compounds were tested against PI3K γ (Homo sapiens, UniProt P48736) (assay: PI3 kinase phosphorylation assay (Biological Method 1), Ki γ). Settings: Table 1, compounds of formula X.
Format: biochemical
Experimental: The compounds of the invention were synthesized according to the examples provided above. PI3K inhibitory (IC50) values of the compounds were determined according to Biological Method 1.
Assay 1: Homogenous Solution Phase Assay
Compounds to be tested are dissolved in DMSO and directly distributed into 384-well flashplates at 1.25 μL per well. To start the reaction, 20 μL of 6 nM PI3 kinase are added into each well followed by 20 μL of 400 nM ATP containing a trace of radiolabeled ATP and 900 nM 1-alpha-phosphatidylinositol (PI). The plates are briefly centrifuged to remove any air gap. The reaction is performed for 15 minutes and then stopped by the addition of 20 μL of 100 mM EDTA. The stopped reaction is incubated overnight at RT to allow the lipid substrate to bind by hydrophobic interaction to the surface of the flashplate. The liquid in the wells is then washed away, and the labeled substrate is detected with scintillation counting.
Assay 2: One Step Solid Phase Assay
This method is similar to Assay 1 except that the lipid substrate (1-alpha-phosphatidylinositol (PI)) is first dissolved in a coating buffer and incubated on flashplate at room temperature overnight to allow the lipid substrate to bind by hydrophobic interaction to the surface of the flashplate. Unbound substrate is then washed away. On the day of assay, 20 μL of 6 nM PI3 kinase are added into each well followed by 20 μL of 400 nM ATP containing trace of radiolabeled ATP. Compounds are added together with enzyme and ATP to the lipid-coated plates. The plates are briefly centrifuged to remove any air gap. The reaction is performed for two to three hours. The reaction is stopped by addition of 20 μL of 100 mM EDTA or by immediate plate washing. Phosphorylated lipid substrate is detected by scintillation counting.
Assay 3: ATP Depletion Assay
Compounds to be tested are dissolved in DMSO and directly distributed into a black 384-well plate at 1.25 μL per well. To start the reaction, 25 μL of 10 nM PI3 kinase and 5 μg/mL 1-alpha-phosphatidylinositol (PI) are added into each well followed by 25 μL of 2 μM ATP. The reaction is performed until approx 50% of the ATP is depleted, and then stopped by the addition of 25 μL of KinaseGlo solution. The stopped reaction is incubated for 5 minutes and the remaining ATP is then detected via luminescence.

Sequence of PI3K γ (P48736 whole entry): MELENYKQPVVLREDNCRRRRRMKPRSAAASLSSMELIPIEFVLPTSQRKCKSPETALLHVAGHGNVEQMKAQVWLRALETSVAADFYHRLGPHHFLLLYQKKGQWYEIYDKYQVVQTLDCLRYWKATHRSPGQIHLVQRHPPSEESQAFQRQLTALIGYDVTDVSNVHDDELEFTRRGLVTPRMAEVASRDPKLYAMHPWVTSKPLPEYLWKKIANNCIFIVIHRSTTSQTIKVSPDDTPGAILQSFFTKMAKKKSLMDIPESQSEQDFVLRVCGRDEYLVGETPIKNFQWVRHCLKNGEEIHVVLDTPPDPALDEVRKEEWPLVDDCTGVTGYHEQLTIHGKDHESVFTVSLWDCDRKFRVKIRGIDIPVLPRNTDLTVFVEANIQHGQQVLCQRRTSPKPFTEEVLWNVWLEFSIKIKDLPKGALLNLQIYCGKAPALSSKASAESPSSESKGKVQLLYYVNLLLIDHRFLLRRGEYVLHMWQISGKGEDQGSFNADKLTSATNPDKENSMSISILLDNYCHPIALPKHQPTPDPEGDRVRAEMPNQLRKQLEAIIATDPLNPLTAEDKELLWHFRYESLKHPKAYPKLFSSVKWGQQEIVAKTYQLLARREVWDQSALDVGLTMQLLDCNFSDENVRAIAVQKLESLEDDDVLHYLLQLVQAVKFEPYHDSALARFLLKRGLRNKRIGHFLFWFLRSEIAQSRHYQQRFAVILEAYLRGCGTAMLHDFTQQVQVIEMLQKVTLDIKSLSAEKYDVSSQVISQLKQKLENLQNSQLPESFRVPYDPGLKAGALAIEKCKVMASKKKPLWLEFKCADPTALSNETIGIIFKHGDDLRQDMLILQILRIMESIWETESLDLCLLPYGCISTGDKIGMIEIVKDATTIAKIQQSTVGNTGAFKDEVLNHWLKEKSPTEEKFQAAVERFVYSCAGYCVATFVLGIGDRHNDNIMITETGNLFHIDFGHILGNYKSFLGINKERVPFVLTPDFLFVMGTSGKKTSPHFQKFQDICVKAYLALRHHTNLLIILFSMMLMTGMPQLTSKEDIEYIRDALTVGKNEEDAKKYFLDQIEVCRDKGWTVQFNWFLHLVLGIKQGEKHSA

Going from `CC(=O)c1cncc(-c2ccc3nc(NC(=O)NCCc4nnn(C(C)C)n4)cn3c2)c1` [drawing 99] to `CCOc1cncc(-c2ccc3nc(NC(=O)NCCc4nnn(C(C)C)n4)cn3c2)c1` [drawing 25], the Ki rises from 0.008 µM to 0.048 µM (6-fold).

Compared with `CC(C)(C)NC(=O)CCNC(=O)Nc1cn2cc(-c3cncc(-c4ccccc4)c3)ccc2n1` [drawing 43], `Cc1ccccc1-c1cncc(-c2ccc3nc(NC(=O)NCCc4nnn(C(C)C)n4)cn3c2)c1` [drawing 91] is 5.4-fold higher in Ki: 0.207 µM for the first, 1.12 µM for the second. The first binds more tightly here.

Going from `COc1cccc(-c2ccc3nc(NC(=O)NCCc4nnn(C(C)C)n4)cn3c2)c1` [drawing 71] to `CC(C)n1nnc(CCNC(=O)Nc2cn3cc(-c4ccccc4)ccc3n2)n1` [drawing 75], the Ki falls from 1.03 µM to 0.423 µM (2.4-fold).

Compared with `CCn1nnc(CCNC(=O)Nc2cn3cc(Br)ccc3n2)n1` [drawing 103], `CCn1nnc(CCNC(=O)Nc2cn3cc(-c4cnc5ccccc5c4)ccc3n2)n1` [drawing 73] is 1.6-fold lower in Ki: 0.911 µM for the first, 0.57 µM for the second.

First: CCc1nnn(CCNC(=O)Nc2cn3cc(-c4cncc(C#N)c4)ccc3n2)n1 [drawing 65]
Second: CCn1cnc(CCNC(=O)Nc2cn3cc(-c4cncc(C(F)(F)F)c4)ccc3n2)c1 [drawing 59]
The Ki of the first is 4.1-fold higher: 0.115 µM for the first, 0.028 µM for the second.

Compound `CCn1nnc(CCNC(=O)Nc2cn3cc(-c4cnn(Cc5ccccc5)c4)ccc3n2)n1` has a Ki of 0.735 µM.

Same assay, conditions: Table 2, compounds of formula X

Compared with `Cc1ccc(-c2ccc3nc(NC(=O)NCCc4nnn(C(C)C)n4)cn3c2)cn1` [Example 1-24, 1-[2-(2-Isopropyl-2H-tetrazol-5-yl)-ethyl]-3-[6-(6-methyl-pyridin-3-yl)-imidazo[1,2-a]pyridin-2-yl]urea], `CC(C)n1nnc(CCNC(=O)Nc2cn3cc(-c4cccc(F)c4)ccc3n2)n1` [Example 1-28, 1-[6-(3-Fluoro-phenyl)-imidazo[1,2-a]pyridin-2-yl]-3-[2-(2-isopropyl-2H-tetrazol-5-yl)-ethyl]urea] is 7.4-fold higher in Ki: 0.113 µM for the first, 0.836 µM for the second. The first binds more tightly here.

`CC(C)n1nnc(CCNC(=O)Nc2cn3cc(-c4cncc(Cl)c4)ccc3n2)n1` [Example 1-12, 1-[6-(5-Chloro-pyridin-3-yl)-imidazo[1,2-a]pyridin-2-yl]-3-[2-(2-isopropyl-2H-tetrazol-5-yl)-ethyl]urea] and `CC(C)n1nnc(CCNC(=O)Nc2cn3cc(-c4cncc(C#N)c4)ccc3n2)n1` [Example 1-3, 1-[6-(5-Cyano-pyridin-3-yl)-imidazo[1,2-a]pyridin-2-yl]-3-[2-(2-isopropyl-2H-tetrazol-5-yl)-ethyl]-urea] are within 1.5-fold of each other in Ki: 0.05 µM for the first, 0.04 µM for the second.

First: CC(C)n1nnc(CCNC(=O)Nc2cn3cc(-c4cncnc4)ccc3n2)n1 [Example 1-4, 1-[2-(2-Isopropyl-2H-tetrazol-5-yl)-ethyl]-3-(6-pyrimidin-5-yl-imidazo[1,2-a]pyridin-2-yl)-urea]
Second: COc1ccc(-c2ccc3nc(NC(=O)NCCc4nnn(CCF)n4)cn3c2)cn1 [Example 1-20, 1-[2-[2-(2-Fluoro-ethyl)-2H-tetrazol-5-yl]-ethyl]-3-[6-(6-methoxy-pyridin-3-yl)-imidazo[1,2-a]pyridin-2-yl]-urea]
The Ki of the first is 2.2-fold higher: 0.165 µM for the first, 0.075 µM for the second. The second binds more tightly here.

`CCn1nnc(CCNC(=O)Nc2cn3cc(-c4ccc5c(c4)OCO5)ccc3n2)n1` [Example 1-8, 1-(6-Benzo[1,3]dioxol-5-yl-imidazo[1,2-a]pyridin-2-yl)-3-[2-(2-ethyl-2H-tetrazol-5-yl)-ethyl]urea] and `CCn1nnc(CCNC(=O)Nc2cn3cc(-c4cccc(C(F)(F)F)c4)ccc3n2)n1` [Example 1-9, 1-[2-(2-Ethyl-2H-tetrazol-5-yl)-ethyl]-3-[6-(3-trifluoromethyl-phenyl)-imidazo[1,2-a]pyridin-2-yl]-urea] are within 1.5-fold of each other in Ki: 0.303 µM for the first, 0.24 µM for the second.

In the case of `CCn1nnc(CCNC(=O)Nc2cn3cc(Br)ccc3n2)n1` [Example 1-45, 1-(6-Bromo-imidazo[1,2-a]pyridin-2-yl)-3-[2-(2-ethyl-2H-tetrazol-5-yl)-ethyl]-urea], the Ki is reported as 0.911 µM.

Same assay, conditions: Table 3, compounds of formula XI

Compared with `CCc1nnn(CCNC(=O)Nc2nc3ccc(-c4cncc(C(F)(F)F)c4)cc3s2)n1` [Example 2-11, 1-[2-(5-Ethyl-tetrazol-2-yl)-ethyl]-3-[6-(5-trifluoromethyl-pyridin-3-yl)-benzothiazol-2-yl]urea], `CCn1cnc(CCNC(=O)Nc2nc3ccc(-c4cncc(C(F)(F)F)c4)cc3s2)c1` [Example 2-12, 1-[2-(1-Ethyl-1H-imidazol-4-yl)-ethyl]-3-[6-(5-trifluoromethyl-pyridin-3-yl)-benzothiazol-2-yl]-urea] is 1.7-fold lower in Ki: 0.242 µM for the first, 0.142 µM for the second. The second binds more tightly here.

`O=C(NCCc1nnn(CCF)n1)Nc1nc2ccc(-c3cncc(C(=O)N4CCOCC4)c3)cc2s1` [Example 2-7, 1-{2-[2-(2-Fluoro-ethyl)-2H-tetrazol-5-yl]-ethyl}-3-{6-[5-(morpholine-4-carbonyl)-pyridin-3-yl]-benzothiazol-2-yl}-urea] showed a Ki of 0.0055 µM.

Same assay, conditions: Table 4

Going from `CCn1nnc(CCNC(=O)Nc2cn3cc(-c4cccnc4)ncc3n2)n1` [Example 3-6, 1-[2-(2-Ethyl-2H-tetrazol-5-yl)-ethyl]-3-(6-pyridin-3-yl-imidazo[1,2-a]pyrazin-2-yl)-urea] to `CCn1nnc(CCNC(=O)Nc2cn3cc(-c4cncc(C(F)(F)F)c4)ncc3n2)n1` [Example 3-4, 1-[2-(2-Ethyl-2H-tetrazol-5-yl)-ethyl]-3-[6-(5-trifluoromethyl-pyridin-3-yl)-imidazo[1,2-a]pyrazin-2-yl]-urea], the Ki falls from 0.082 µM to 0.027 µM (3-fold).

Compared with `CCn1nnc(CCNC(=O)Nc2cn3cc(-c4cncc(C(F)(F)F)c4)cnc3n2)n1` [Example 3-10, 1-[2-(2-Ethyl-2H-tetrazol-5-yl)-ethyl]-3-[6-(5-trifluoromethyl-pyridin-3-yl)-imidazo[1,2-a]pyrimnidin-2-yl]-urea], `CCn1nnc(CCNC(=O)Nc2cn3nc(-c4cncc(C(F)(F)F)c4)ccc3n2)n1` [Example 3-1, 1-[2-(2H-Ethyl-2H-tetrazole-5-yl)-ethyl]-3-[6-(5-trifluoromethyl-pyridin-3-yl)-imidazo[1,2-b]pyridazin-2-yl]-urea] is 74-fold lower in Ki: 0.884 µM for the first, 0.012 µM for the second.

First: CCn1nnc(CCNC(=O)Nc2nc3ccc(-c4cncc(C(F)(F)F)c4)cn3n2)n1 [Example 3-7, 1-[2-(2-Ethyl-2H-tetrazol-5-yl)-ethyl]-3-[6-(5-trifluoromethyl-pyridin-3-yl)-[1,2,4]triazolo[1,5-a]pyridin-2-yl]-urea]
Second: CCn1nnc(CCNC(=O)Nc2nc3cc(-c4cncc(C(F)(F)F)c4)ccn3n2)n1 [Example 3-16, 1-[2-(2-Ethyl-2H-tetrazol-5-yl)-ethyl]-3-[7-(5-trifluoromethyl-pyridin-3-yl)-[1,2,4]triazolo[1,5-a]pyridin-2-yl]-urea]
The Ki of the first is 1.7-fold lower: 0.376 µM for the first, 0.64 µM for the second.

Going from `CCn1nnc(CCNC(=O)Nc2nc3ccc(-c4cccnc4)cn3n2)n1` [Example 3-8, 1-[2-(2-Ethyl-2H-tetrazol-5-yl)-ethyl]-3-(6-pyridin-3-yl-[1,2,4]triazolo[1,5-a]pyridin-2-yl)-urea] to `CCn1nnc(CCNC(=O)Nc2nc3ccc(-c4cncc(C#N)c4)cn3n2)n1` [Example 3-9, 1-[6-(5-Cyano-pyridin-3-yl)-[1,2,4]triazolo[1,5-a]pyridin-2-yl]-3-[2-(2-ethyl-2H-tetrazol-5-yl)-ethyl]-urea], the Ki rises from 0.099 µM to 0.418 µM (4.2-fold).

For `CCn1nnc(CCNC(=O)Nc2cn3nc(-c4cncc(F)c4)ccc3n2)n1` [Example 3-17, 1-[2-(2-Ethyl-2H-tetrazol-5-yl)-ethyl]-3-[6-(5-fluoro-pyridin-3-yl)-imidazo[1,2-b]pyridazin-2-yl]-urea], the Ki was 0.107 µM.
